Assays:
Type in all cases: cell-based
hPiezo1 = molecular target: T1, hPiezo1 (Homo sapiens, UniProt Q92508); assay: FLIPR calcium influx (Fluo3), transfected HEK293T, 384-well; conditions: agonist; pH 7.4, HBSS with 1.26 mM CaCl2; unreliable (compound insolubility above ~20 μM)
T1 construct: gene PIEZO1; cDNA transiently transfected in HEK293T cells

mPiezo2 = molecular target: T2, mPiezo2 (Mus musculus, UniProt Q8CD54); assay: whole-cell patch clamp of mechanically activated currents, transfected HEK293T; conditions: 10 μM Yoda1, up to 5 min, -80 mV; selectivity control
T2 construct: gene Piezo2; cDNA transiently transfected in HEK293T cells
T2 sequence (Q8CD54 whole entry): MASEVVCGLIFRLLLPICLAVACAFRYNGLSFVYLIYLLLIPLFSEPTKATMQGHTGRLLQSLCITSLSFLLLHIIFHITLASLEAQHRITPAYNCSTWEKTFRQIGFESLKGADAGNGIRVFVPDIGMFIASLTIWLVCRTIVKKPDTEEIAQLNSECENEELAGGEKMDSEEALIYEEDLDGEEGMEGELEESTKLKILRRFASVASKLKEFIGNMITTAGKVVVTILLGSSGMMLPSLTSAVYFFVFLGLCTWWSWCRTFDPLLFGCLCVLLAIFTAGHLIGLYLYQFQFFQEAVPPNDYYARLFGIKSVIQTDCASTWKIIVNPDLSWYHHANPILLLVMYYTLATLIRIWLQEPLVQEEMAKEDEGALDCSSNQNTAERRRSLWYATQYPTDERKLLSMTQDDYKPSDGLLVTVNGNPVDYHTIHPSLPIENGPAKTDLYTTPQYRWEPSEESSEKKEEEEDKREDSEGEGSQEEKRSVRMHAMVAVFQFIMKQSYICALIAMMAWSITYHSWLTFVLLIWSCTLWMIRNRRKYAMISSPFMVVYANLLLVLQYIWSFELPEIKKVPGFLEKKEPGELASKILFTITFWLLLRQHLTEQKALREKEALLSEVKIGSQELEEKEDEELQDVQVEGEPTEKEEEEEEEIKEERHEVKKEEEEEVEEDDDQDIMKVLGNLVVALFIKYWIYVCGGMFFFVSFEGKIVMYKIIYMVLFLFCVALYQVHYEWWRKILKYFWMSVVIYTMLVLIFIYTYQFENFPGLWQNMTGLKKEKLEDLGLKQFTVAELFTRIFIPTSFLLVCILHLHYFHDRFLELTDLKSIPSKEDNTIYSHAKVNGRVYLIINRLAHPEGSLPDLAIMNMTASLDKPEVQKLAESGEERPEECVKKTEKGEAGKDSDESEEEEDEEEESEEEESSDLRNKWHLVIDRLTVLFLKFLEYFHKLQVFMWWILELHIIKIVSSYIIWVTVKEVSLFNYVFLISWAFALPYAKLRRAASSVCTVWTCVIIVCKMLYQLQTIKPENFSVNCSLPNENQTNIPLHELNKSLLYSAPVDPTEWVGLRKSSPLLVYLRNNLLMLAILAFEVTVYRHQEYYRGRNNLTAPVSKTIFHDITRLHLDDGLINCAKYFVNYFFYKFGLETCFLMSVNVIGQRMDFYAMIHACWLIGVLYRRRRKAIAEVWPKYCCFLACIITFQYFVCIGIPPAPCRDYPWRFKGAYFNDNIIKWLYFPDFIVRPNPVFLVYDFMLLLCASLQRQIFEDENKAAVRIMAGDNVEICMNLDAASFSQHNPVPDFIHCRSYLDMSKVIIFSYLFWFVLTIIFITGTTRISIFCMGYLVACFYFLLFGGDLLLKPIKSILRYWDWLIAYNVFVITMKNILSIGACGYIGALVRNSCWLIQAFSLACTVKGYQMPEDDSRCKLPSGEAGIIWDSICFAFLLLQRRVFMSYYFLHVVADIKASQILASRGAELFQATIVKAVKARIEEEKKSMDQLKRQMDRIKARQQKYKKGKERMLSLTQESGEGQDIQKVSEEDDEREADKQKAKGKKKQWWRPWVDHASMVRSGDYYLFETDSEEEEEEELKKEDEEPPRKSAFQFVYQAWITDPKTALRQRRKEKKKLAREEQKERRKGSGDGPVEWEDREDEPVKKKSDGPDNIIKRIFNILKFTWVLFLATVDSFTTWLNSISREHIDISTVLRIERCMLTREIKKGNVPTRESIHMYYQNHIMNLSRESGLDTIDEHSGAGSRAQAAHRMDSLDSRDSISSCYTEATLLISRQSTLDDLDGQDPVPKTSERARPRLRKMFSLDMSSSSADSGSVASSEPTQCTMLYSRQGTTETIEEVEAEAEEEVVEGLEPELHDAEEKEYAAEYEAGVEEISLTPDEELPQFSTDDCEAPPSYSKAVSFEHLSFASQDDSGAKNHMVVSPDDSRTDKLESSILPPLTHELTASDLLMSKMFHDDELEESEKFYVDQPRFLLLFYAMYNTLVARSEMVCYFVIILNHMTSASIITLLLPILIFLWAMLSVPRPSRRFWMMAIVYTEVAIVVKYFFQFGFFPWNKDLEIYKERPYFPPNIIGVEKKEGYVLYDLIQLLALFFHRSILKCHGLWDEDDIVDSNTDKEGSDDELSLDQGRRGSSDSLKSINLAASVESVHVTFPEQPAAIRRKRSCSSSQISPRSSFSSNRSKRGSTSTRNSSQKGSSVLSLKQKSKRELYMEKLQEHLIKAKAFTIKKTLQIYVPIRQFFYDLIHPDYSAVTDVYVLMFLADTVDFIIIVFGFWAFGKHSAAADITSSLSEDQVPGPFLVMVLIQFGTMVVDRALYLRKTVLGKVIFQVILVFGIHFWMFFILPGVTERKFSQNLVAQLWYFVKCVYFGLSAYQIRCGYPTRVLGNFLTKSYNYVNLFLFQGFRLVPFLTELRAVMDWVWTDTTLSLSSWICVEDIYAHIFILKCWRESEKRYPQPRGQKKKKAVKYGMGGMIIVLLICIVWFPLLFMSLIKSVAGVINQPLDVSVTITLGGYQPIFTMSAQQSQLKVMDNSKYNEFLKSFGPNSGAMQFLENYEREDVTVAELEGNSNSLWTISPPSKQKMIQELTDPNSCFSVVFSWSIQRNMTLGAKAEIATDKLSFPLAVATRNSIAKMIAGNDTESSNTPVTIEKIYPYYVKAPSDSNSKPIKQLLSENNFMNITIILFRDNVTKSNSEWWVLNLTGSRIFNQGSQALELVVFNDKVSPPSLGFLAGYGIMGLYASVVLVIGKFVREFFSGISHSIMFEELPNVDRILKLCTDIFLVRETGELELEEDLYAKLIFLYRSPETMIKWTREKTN

mPiezo1 = molecular target: T3, mPiezo1 (Mus musculus, UniProt E2JF22); assay: FLIPR calcium influx (Fluo3), transfected HEK293T, 384-well; conditions: agonist; pH 7.4, HBSS with 1.26 mM CaCl2; unreliable (compound insolubility above ~20 μM)
T3 construct: gene Piezo1; full-length cDNA transiently transfected in HEK293T (mPiezo1-IRES GFP for imaging and patch clamp); for bilayers purified protein as in Coste et al. 2012

**Q.** `Clc1cccc(Cl)c1CSc1nnc(-c2cnccn2)s1` [Yoda1] was tested. Which “apparent EC50” value (hPiezo1) did it give?
**A.** 26.6 (95% CI 20.6 to 34.4) μM

**Q.** And the “whole-cell patch clamp of mechanically activated currents, transfected HEK293T” value (mPiezo2)?
**A.** No effect was observed upon Yoda1 exposure

**Q.** And the “apparent EC50” value (mPiezo1)?
**A.** 17.1 (95% CI 13.4 to 21.9) μM
